Legend:
Format in all cases: functional
Mus musculus [1] = assay: Percentage inhibition of writhing in mouse at 25 mg/kg (PBQ writhing test)
Rattus norvegicus [2] = species: Rattus norvegicus; assay: Dose causing an analgesic effect in 50% of rats (Randall-Selitto assay)
Mus musculus [3] = species: Mus musculus; assay: Dose causing 50% inhibition of writhing in mouse (PBQ writhing test)
Rattus norvegicus [4] = assay: Percentage analgesic effect of rats at 10 mg/kg (Randall-Selitto assay)
Mus musculus [5] = assay: Percentage inhibition of writhing in mouse at 30 mg/kg (PBQ writhing test)
[6] = Ratio of acute ulcerogenesis UD50/Randall-Selitto ED50
[7] = Ratio of carrageenan paw edema ED50/Randall-Sellitto ED50
Rattus norvegicus [8] = species: Rattus norvegicus; assay: Dose at which 50% of the rats had a positive gastrointestinal irritation / ulceration on a quantal all-or-none basis
Rattus norvegicus [9] = assay: Dose causing 50% inhibition of edema by carrageenan paw edema assay
Rattus norvegicus [10] = assay: Dose causing 50% inhibition of edema by carrageenan paw edema assay.
Rattus norvegicus [11] = species: Rattus norvegicus; assay: Dose at which 50% of the rats had a positive gastrointestinal irritation / ulceration on a quantal all-or-none basis.
[12] = Rattus norvegicus, read-out: ED50

SMILES | Safety index [6] | Ratio [7] | ED50 (Mus musculus [3]; Mus musculus, read-out: ED50) | ED50 (Rattus norvegicus [2]; [12]) | further results
CC[C@@]1(CC(=O)O)OC[C@@H](Cc2ccccc2)c2c1[nH]c1ccccc21 |  |  |  |  | inhibition in vivo at 25 mg/kg (Mus musculus [1]): 19%
CCC1(CC(=O)O)OCC(Cc2ccccc2)c2c1[nH]c1ccccc21 (single isomer, unassigned; (+)) [PEMEDOLAC] |  |  |  |  | ED50 (Rattus norvegicus [2]): 0.04 mg/kg; ED50 (Mus musculus [3]): 1.8 mg/kg
CCC1(CC(=O)O)OCC(Cc2ccccc2)c2c1[nH]c1ccccc21 (single isomer, unassigned; (-)) [PEMEDOLAC] |  |  |  |  | Effect (Rattus norvegicus [4]): 40%; inhibition in vivo at 30 mg/kg (Mus musculus [5]): 15%
CCC1(CC(=O)O)OCC(Cc2ccccc2)c2c1[nH]c1ccccc21 (stereo in doubt) | > 35000 | 33000 |  |  | 
CCC1(CC(=O)O)OCC(Cc2ccccc2)c2c1[nH]c1ccccc21 (stereo in doubt) [PEMEDOLAC] |  |  | 2 mg/kg |  | ED50 (Rattus norvegicus [2]): 0.003 mg/kg; UD50 (Rattus norvegicus [8]): 107 mg/kg; ED50 (Rattus norvegicus [9]): ~100 mg/kg
CCc1cccc2c3c([nH]c12)C(CC)(CC(=O)O)OCC3 (stereo not drawn) [ETODOLAC] | 13 | 5.1 |  | 4.5 mg/kg | UD50 (Rattus norvegicus [8]): 58 mg/kg; ED50 (Rattus norvegicus [9]): 23 mg/kg
CC(C)Cc1ccc(C(C)C(=O)O)cc1 (stereo not drawn) [IBUPROFEN] | 2.3 | 0.3 | 32.4 mg/kg | 64.5 mg/kg | ED50 (Rattus norvegicus [10]): 21 mg/kg; UD50 (Rattus norvegicus [11]): 150 mg/kg
CN1C(C(=O)Nc2ccccn2)=C(O)c2ccccc2S1(=O)=O [PIROXICAM] | 17 | 3.7 | 3.4 mg/kg | 0.35 mg/kg | ED50 (Rattus norvegicus [10]): 1.3 mg/kg; UD50 (Rattus norvegicus [11]): 6 mg/kg

— ChEMBL document CHEMBL1124138, “Synthesis and analgesic activity of pemedolac (cis-1-ethyl-1,3,4,9-tetrahydro-4-(phenylmethyl)pyrano[3,4-b]ind ole-1- acetic acid)” (1988)
